Among the data in PubChem BioAssay (NCI) are TGI values, retold here.

Molecules are shown by their SMILES.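 96-well plates; 48 h exposure; 5 concentrations. Endpoints by linear interpolation between flanking doses. Not reached: highest tested concentration assigned. TGI: total growth inhibition.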

Test systems include HOP-62 NSCLC; OVCAR-5 ovarian; SR leukemia; OVCAR-3 ovarian; OVCAR-8 ovarian; DU-145 prostate; T-47D breast; NCI-H226 lung; SF-295 CNS; MDA-MB-231 breast; RXF 393 renal.
Common to all, as to experiment: NCI-60 cell line screen, 48 h

For `CC1=NN=C(C)C1N=Nc1ccc2nc(C)[nH]c2c1`, the TGI in the experiment with HOP-62 NSCLC was over 100 µM; with OVCAR-5 ovarian it was over 100 µM; in the experiment on SR leukemia, 48.3 µM; in the experiment with OVCAR-3 ovarian it was over 73.6 µM; with OVCAR-8 ovarian, over 100 µM; with DU-145 prostate, over 100 µM. Besides, the TGI was 54.8 µM in the experiment on T-47D breast; 34.8 µM in the experiment with NCI-H226 lung; over 75.1 µM in the experiment with SF-295 CNS; over 88.2 µM in the experiment with MDA-MB-231 breast; 55.5 µM in the experiment on RXF 393 renal.
Regarding `Cc1cccc(C2ON=C(c3ccccc3)N2C23CC4CC(CC(C4)C2)C3)c1` (stereo not given), the TGI with HOP-62 NSCLC, in the experiment on OVCAR-5 ovarian, with SR leukemia, with OVCAR-3 ovarian, in the experiment with OVCAR-8 ovarian and in the experiment with DU-145 prostate was over 10 µM in each case. Besides, the TGI with T-47D breast, in the experiment with NCI-H226 lung, with SF-295 CNS, in the experiment with MDA-MB-231 breast and in the experiment with RXF 393 renal was over 10 µM in each case.
For `O=C/C(=C1/C=Cc2cc([N+](=O)[O-])ccc2S1)c1ccccc1`, the TGI with HOP-62 NSCLC, in the experiment with OVCAR-5 ovarian, in the experiment on SR leukemia, in the experiment with OVCAR-3 ovarian, with DU-145 prostate and in the experiment on T-47D breast was over 100 µM each time. The TGI in the experiment on NCI-H226 lung, in the experiment on SF-295 CNS, in the experiment with MDA-MB-231 breast and with RXF 393 renal was over 100 µM each time.
Turning to `CC(C)[C@@H]1CC[C@@H](C)C[C@H]1OC(=O)c1c2n(c3ccccc13)C[C@H]1OC(C)(C)O[C@@H]21`, the TGI was over 100 µM with HOP-62 NSCLC; over 100 µM in the experiment with OVCAR-5 ovarian; 24.1 µM in the experiment on SR leukemia; over 100 µM in the experiment on OVCAR-3 ovarian; over 100 µM in the experiment with OVCAR-8 ovarian; over 100 µM with DU-145 prostate. Besides, the TGI with T-47D breast was over 100 µM; in the experiment with NCI-H226 lung, over 100 µM; with SF-295 CNS, over 100 µM; in the experiment with MDA-MB-231 breast, over 100 µM; in the experiment with RXF 393 renal, 82.9 µM.
For `CCC(NC(C)c1ccccc1)C(=O)c1ccc(OCc2ccccc2)c(OCc2ccccc2)c1` (stereo not given), the TGI in the experiment on HOP-62 NSCLC, with OVCAR-5 ovarian, in the experiment on SR leukemia, with OVCAR-3 ovarian, in the experiment with OVCAR-8 ovarian and in the experiment with DU-145 prostate was over 100 µM in each case. Also, the TGI in the experiment with T-47D breast, in the experiment on NCI-H226 lung, in the experiment on SF-295 CNS, in the experiment on MDA-MB-231 breast and with RXF 393 renal was over 100 µM throughout.
In the case of `CN(C)c1ccc(/C=C/C(=O)c2ccc(O)cc2)cc1`, the TGI is over 100 µM with HOP-62 NSCLC; over 100 µM in the experiment on OVCAR-5 ovarian; 3.02 µM in the experiment on SR leukemia; 9.37 µM in the experiment with OVCAR-3 ovarian; over 100 µM with OVCAR-8 ovarian; 63.5 µM in the experiment on DU-145 prostate. In addition, the TGI is 57.6 µM with T-47D breast; over 100 µM in the experiment on NCI-H226 lung; over 41.6 µM in the experiment with SF-295 CNS; over 91.5 µM with MDA-MB-231 breast; over 100 µM with RXF 393 renal.
For `CC(=O)CCCCn1c(=O)c2c(nc(Br)n2C)n(C)c1=O`, the TGI in the experiment on HOP-62 NSCLC, with OVCAR-5 ovarian, with SR leukemia, in the experiment with OVCAR-3 ovarian, in the experiment with OVCAR-8 ovarian and in the experiment with DU-145 prostate was over 100 µM each time. The TGI in the experiment with T-47D breast, with NCI-H226 lung, in the experiment with SF-295 CNS, in the experiment on MDA-MB-231 breast and in the experiment on RXF 393 renal was over 100 µM throughout.
For the molecule `COc1ccc(/C=c2\c(=O)[nH]c3nc4ccccc4c(=O)n23)cc1`, the TGI in the experiment with HOP-62 NSCLC, in the experiment with OVCAR-5 ovarian, in the experiment on SR leukemia, with OVCAR-3 ovarian, with OVCAR-8 ovarian and in the experiment with DU-145 prostate was over 100 µM each time. Moreover, the TGI in the experiment on T-47D breast, with NCI-H226 lung, in the experiment with SF-295 CNS, with MDA-MB-231 breast and in the experiment on RXF 393 renal was over 100 µM in each case.
As for `COc1nc(N=P(c2ccccc2)(c2ccccc2)c2ccccc2)cc(=O)n1C`, the TGI with HOP-62 NSCLC, in the experiment on OVCAR-5 ovarian, with SR leukemia, in the experiment with OVCAR-3 ovarian, in the experiment with OVCAR-8 ovarian and in the experiment with DU-145 prostate was over 100 µM throughout. Moreover, the TGI with T-47D breast, with NCI-H226 lung, in the experiment on SF-295 CNS, in the experiment with MDA-MB-231 breast and in the experiment on RXF 393 renal was over 100 µM in each case.
Take `CC(C)(C)OC(=O)NC1CCCC1C(=O)C1=CCCC1` (stereo not given): the TGI with HOP-62 NSCLC, in the experiment with OVCAR-5 ovarian, in the experiment on SR leukemia, in the experiment with OVCAR-3 ovarian, in the experiment with OVCAR-8 ovarian and in the experiment with DU-145 prostate was over 100 µM throughout. Further, the TGI in the experiment on T-47D breast, with NCI-H226 lung, in the experiment on MDA-MB-231 breast and with RXF 393 renal was over 100 µM in each case.
Consider `CCN(CC)CCCNc1c2c(Cl)cc(Cl)cc2nc2nc(=O)[nH]c(C)c12`, for which the TGI with HOP-62 NSCLC is 64.7 µM; with OVCAR-5 ovarian it was 50.6 µM; in the experiment with SR leukemia it was over 10 µM; in the experiment on OVCAR-3 ovarian it was over 100 µM; in the experiment with OVCAR-8 ovarian, over 10 µM; in the experiment on DU-145 prostate, over 100 µM. Moreover, the TGI in the experiment with T-47D breast is over 100 µM; with NCI-H226 lung it was over 100 µM; in the experiment with SF-295 CNS it was over 100 µM; with MDA-MB-231 breast, 33.8 µM; with RXF 393 renal it was over 100 µM.
On to `COc1ccc(-n2c(CCC(=O)O)nc3c2C(=O)c2ccccc2C3=O)cc1`, for which the TGI in the experiment on HOP-62 NSCLC, in the experiment on OVCAR-5 ovarian, in the experiment with SR leukemia, in the experiment on OVCAR-3 ovarian, in the experiment on OVCAR-8 ovarian and in the experiment on DU-145 prostate was over 100 µM each time. The TGI with T-47D breast, in the experiment with NCI-H226 lung, with SF-295 CNS, with MDA-MB-231 breast and in the experiment on RXF 393 renal was over 100 µM each time.
